# Like-named read-outs stand apart in the source and are kept apart here.
# Tests used:
# Assay type in all cases: cell-based
# [1] = test system: Salmonella enteritidis Gaertner; test: MIC, Salmonella enteritidis Gaertner; conditions: Salmonella enterica; Salmonella enteritidis Gaertner; read-out: MIC
# [2] = test system: Streptococcus pyogenes N.Y.5; test: MIC, Streptococcus pyogenes N.Y.5; conditions: read-out: MIC
# [3] = test system: Streptococcus faecalis 1501; test: MIC, Streptococcus faecalis 1501; conditions: Enterococcus faecalis; Streptococcus faecalis 1501; read-out: MIC
# [4] = test system: Bacillus subtilis ATC 6633; test: MIC, Bacillus subtilis ATC 6633; conditions: ATC6633; Bacillus subtilis ATC 6633; read-out: MIC
# [5] = test system: Staphylococcus epidermis sp-al-1; test: MIC, Staphylococcus epidermis sp-al-1; conditions: SPAL1; Staphylococcus epidermis sp-al-1; read-out: MIC
# [6] = test system: Shigella sonnei E33; test: MIC, Shigella sonnei E33
# [7] = test system: Sarcina lutea ATCC 9341; test: MIC, Sarcina lutea ATCC 9341; conditions: Micrococcus luteus, ATCC9341
# [8] = test system: Klebsiella pneumoniae ATCC 10031; test: MIC, Klebsiella pneumoniae ATCC 10031; conditions: ATCC10031; Klebsiella pneumoniae ATCC 10031; read-out: MIC
# [9] = test system: Escherichia coli NIHJ-JC2; test: MIC, Escherichia coli NIHJ-JC2; conditions: NIHJJC2
# [10] = test system: Staphylococcus aureus MS353 C36; test: MIC, Staphylococcus aureus MS353 C36; conditions: MS353C36
# [11] = test system: Corynebacterium diptheriae P.Y.8; test: MIC, Corynebacterium diptheriae P.Y.8; conditions: Corynebacterium diptheriae P.Y.8; read-out: MIC
# [12] = test system: Proteus vulgaris OX19; test: MIC, Proteus vulgaris OX19; conditions: Proteus vulgaris OX19; read-out: MIC
# [13] = test system: Serratia marcescens; test: MIC, Serratia marcescens; conditions: read-out: MIC
# [14] = test system: Streptococcus pyogenes 1022; test: MIC, Streptococcus pyogenes 1022 (macrolide resistant); conditions: macrolide resistant bacteria A group
# From the text: (§1) *macrolide resistant bacteria A group (clinical isolates of erythromycin,
# (§2) oleandomycin and 16membered macrolide antibiotic resistant strains.)
# [15] = test system: Escherichia coli B; test: MIC, Escherichia coli B
# [16] = test system: Staphylococcus aureus MS353; test: MIC, Staphylococcus aureus MS353; conditions: Staphylococcus aureus MS353; read-out: MIC
# [17] = test system: Salmonella typhosa H901; test: MIC, Salmonella typhosa H901; conditions: Salmonella enterica, TYPHOSA
# [18] = test system: Staphylococcus aureus 0127; test: MIC, Staphylococcus aureus 0127 (macrolide resistant); conditions: Staphylococcus aureus 0127; macrolide resistant bacteria A group; read-out: MIC
# From the text: as §1, §2
# [19] = test system: Shigella flexineri type 3a; test: MIC, Shigella flexineri type 3a; conditions: TYPE3A
# [20] = test system: Staphylococcus aureus ATCC 6538P; test: MIC, Staphylococcus aureus ATCC 6538P; conditions: ATCC6538P, read-out: MIC
# [21] = test system: Streptococcus agalactiae 1020; test: MIC, Streptococcus agalactiae 1020; conditions: Streptococcus agalactiae 1020; read-out: MIC
# [22] = test system: Staphylococcus aureus 0119; test: MIC, Staphylococcus aureus 0119 (macrolide resistant); conditions: macrolide resistant bacteria A group
# From the text: as §1, §2
# [23] = test system: Staphylococcus aureus MS353 A0; test: MIC, Staphylococcus aureus MS353 A0 (macrolide resistant); conditions: MS353A0, macrolide resistant bacteria A group
# From the text: as §1, §2
# [24] = test system: Pseudomonas aeruginosa IAM 1095; test: MIC, Pseudomonas aeruginosa IAM 1095; conditions: IAM1095; Pseudomonas aeruginosa IAM 1095; read-out: MIC
# [25] = test system: Micrococcus flavus ATCC 10240; test: MIC, Micrococcus flavus ATCC 10240; conditions: ATCC10240; Micrococcus flavus ATCC 10240; read-out: MIC
# [26] = Streptococcus pyogenes 1022, read-out: MIC
SMILES,MIC [1],MIC [2],MIC [3],MIC [4],MIC [5],MIC [6],MIC [7],MIC [8],MIC [9],MIC [10],MIC [11],MIC [12],MIC [13],MIC [15],MIC [16],MIC [17],MIC [18],MIC [19],MIC [20],MIC [21],further results
CCC1OC(=O)CC(O)C(C)C(OC2OC(C)C(O)C(N(C)C)C2O)C(CC=O)CC(C)C(=O)C=CC(C)=CC1COc1ccc(Br)cc1 (stereo not shown),> 100 µg/mL,≤ 0.05 µg/mL,0.2 µg/mL,0.2 µg/mL,0.1 µg/mL,100 µg/mL,≤ 0.05 µg/mL,3.1 µg/mL,100 µg/mL,0.2 µg/mL,≤ 0.05 µg/mL,25 µg/mL,50 µg/mL,25 µg/mL,0.2 µg/mL,> 100 µg/mL,25 µg/mL,12.5 µg/mL,0.1 µg/mL,≤ 0.05 µg/mL,"MIC ([14]; Streptococcus pyogenes, 1022, Streptococcus pyogenes 1022): 12.5 µg/mL; MIC [22]: 25 µg/mL; MIC [23]: 25 µg/mL; MIC [24]: > 100 µg/mL; MIC [25]: ≤ 0.05 µg/mL"
CCC1OC(=O)CC(O)C(C)C(OC2OC(C)C(O)C(N(C)C)C2O)C(CC=O)CC(C)C(=O)C=CC(C)=CC1COc1ccc(C)cc1 (stereo not shown),> 100 µg/mL,≤ 0.05 µg/mL,0.1 µg/mL,0.1 µg/mL,≤ 0.05 µg/mL,> 100 µg/mL,≤ 0.05 µg/mL,6.3 µg/mL,100 µg/mL,0.2 µg/mL,≤ 0.05 µg/mL,25 µg/mL,100 µg/mL,50 µg/mL,0.2 µg/mL,> 100 µg/mL,50 µg/mL,50 µg/mL,0.2 µg/mL,≤ 0.05 µg/mL,"MIC [14, 26]: 25 µg/mL; MIC [22]: 50 µg/mL; MIC [23]: 50 µg/mL; MIC [24]: > 100 µg/mL; MIC [25]: ≤ 0.05 µg/mL"
CCC1OC(=O)CC(O)C(C)C(OC2OC(C)C(O)C(N(C)C)C2O)C(CC=O)CC(C)C(=O)C=CC(C)=CC1COc1cccc([N+](=O)[O-])c1 (stereo not shown),> 100 µg/mL,≤ 0.05 µg/mL,0.1 µg/mL,≤ 0.05 µg/mL,≤ 0.05 µg/mL,100 µg/mL,≤ 0.05 µg/mL,1.6 µg/mL,100 µg/mL,0.1 µg/mL,≤ 0.05 µg/mL,25 µg/mL,50 µg/mL,50 µg/mL,0.1 µg/mL,100 µg/mL,100 µg/mL,12.5 µg/mL,0.1 µg/mL,≤ 0.05 µg/mL,"MIC [14, 26]: 50 µg/mL; MIC [22]: > 100 µg/mL; MIC [23]: 100 µg/mL; MIC [24]: 50 µg/mL; MIC [25]: ≤ 0.05 µg/mL"
CCc1ccc(OCC2C=C(C)C=CC(=O)C(C)CC(CC=O)C(OC3OC(C)C(O)C(N(C)C)C3O)C(C)C(O)CC(=O)OC2CC)cc1 (stereo not shown),> 100 µg/mL,0.1 µg/mL,0.4 µg/mL,0.4 µg/mL,0.2 µg/mL,> 100 µg/mL,≤ 0.05 µg/mL,6.3 µg/mL,> 100 µg/mL,0.4 µg/mL,≤ 0.05 µg/mL,100 µg/mL,> 100 µg/mL,> 100 µg/mL,0.4 µg/mL,> 100 µg/mL,25 µg/mL,> 100 µg/mL,0.4 µg/mL,0.1 µg/mL,"MIC [14, 26]: 12.5 µg/mL; MIC [22]: 25 µg/mL; MIC [23]: 25 µg/mL; MIC [24]: > 100 µg/mL; MIC [25]: ≤ 0.05 µg/mL"
CCC1OC(=O)CC(O)C(C)C(OC2OC(C)C(O)C(N(C)C)C2O)C(CC=O)CC(C)C(=O)C=CC(C)=CC1COc1ccc(OC)cc1 (stereo not shown),> 100 µg/mL,≤ 0.05 µg/mL,0.2 µg/mL,0.2 µg/mL,≤ 0.05 µg/mL,> 100 µg/mL,≤ 0.05 µg/mL,3.1 µg/mL,> 100 µg/mL,0.1 µg/mL,≤ 0.05 µg/mL,50 µg/mL,> 100 µg/mL,100 µg/mL,0.2 µg/mL,> 100 µg/mL,> 100 µg/mL,50 µg/mL,0.2 µg/mL,≤ 0.05 µg/mL,"MIC [14, 26]: 100 µg/mL; MIC [22]: > 100 µg/mL; MIC [23]: 100 µg/mL; MIC [24]: > 100 µg/mL; MIC [25]: ≤ 0.05 µg/mL"
CCC1OC(=O)CC(O)C(C)C(OC2OC(C)C(O)C(N(C)C)C2O)C(CC=O)CC(C)C(=O)C=CC(C)=CC1COc1ccccc1 (stereo not shown),100 µg/mL,≤ 0.05 µg/mL,≤ 0.05 µg/mL,≤ 0.05 µg/mL,≤ 0.05 µg/mL,50 µg/mL,≤ 0.05 µg/mL,1.6 µg/mL,50 µg/mL,≤ 0.05 µg/mL,≤ 0.05 µg/mL,12.5 µg/mL,25 µg/mL,25 µg/mL,≤ 0.05 µg/mL,100 µg/mL,100 µg/mL,6.3 µg/mL,≤ 0.05 µg/mL,≤ 0.05 µg/mL,"MIC [14, 26]: 50 µg/mL; MIC [22]: 100 µg/mL; MIC [23]: 50 µg/mL; MIC [24]: 50 µg/mL; MIC [25]: ≤ 0.05 µg/mL"
CCC1OC(=O)CC(O)C(C)C(OC2OC(C)C(O)C(N(C)C)C2O)C(CC=O)CC(C)C(=O)C=CC(C)=CC1COc1cccc(N(CC)CC)c1 (stereo not shown),> 100 µg/mL,0.1 µg/mL,0.2 µg/mL,0.2 µg/mL,0.2 µg/mL,> 100 µg/mL,0.1 µg/mL,3.1 µg/mL,> 100 µg/mL,0.4 µg/mL,≤ 0.05 µg/mL,25 µg/mL,> 100 µg/mL,> 100 µg/mL,0.4 µg/mL,> 100 µg/mL,25 µg/mL,50 µg/mL,0.8 µg/mL,0.1 µg/mL,"MIC [14, 26]: 12.5 µg/mL; MIC [22]: 50 µg/mL; MIC [23]: 25 µg/mL; MIC [24]: > 100 µg/mL; MIC [25]: 0.1 µg/mL"

# Source: patent US4515941A, “23-Demycinosyldesmycosin derivatives” (Toyo Jozo Kabushiki Kaisha, priority 1982, dated 1985)
